# Assay results from BigSolDB 2.1.
compound,measurement,setting,value
Oc1ccc(/C=C/c2cc(O)cc(O)c2)cc1,solubility (mole fraction),"in transcutol, 288.15 K",0.148
same,solubility (mole fraction),"in transcutol, 293.15 K",0.15
same,solubility (mole fraction),"in transcutol, 298.15 K",0.153
same,solubility (mole fraction),"in transcutol, 303.15 K",0.156
same,solubility (mole fraction),"in transcutol, 308.15 K",0.159
same,solubility (mole fraction),"in transcutol, 313.15 K",0.161
same,solubility (mole fraction),"in water, 288.15 K",1.29e-06
same,solubility (mole fraction),"in water, 293.15 K",1.91e-06
same,solubility (mole fraction),"in water, 298.15 K",2.78e-06
same,solubility (mole fraction),"in water, 303.15 K",4e-06
same,solubility (mole fraction),"in water, 308.15 K",5.74e-06
same,solubility (mole fraction),"in water, 313.15 K",8.03e-06
